Measurements reported in US20250129070A1, “BIFUNCTIONAL ANDROGEN RECEPTOR COMPOUNDS” (priority 2023, published 2025).
Like-named read-outs stand apart in the source and are kept apart here.

Columns and labels:
Format in all cases: cell-based
[1] = biological target: Histone H3.3/CBP-BD Interaction (Homo sapiens, UniProt Q92793); test: NanoBRET cellular assay (Histone H3.3/CBP-BD Interaction Assay)
VCaP cells = test: VCaP growth inhibition assay; conditions: 30 pM R1881, 9 days, CTG
Summary of the method: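 VCaP cells in phenol red-free DMEM/5% CSS, pre-incubated 72 h, then stimulated with R1881 (final 30 pM) and treated with 1:5 serial dilutions (final 100 nM to 10 fM) for 9 days at 37 °C. Viability by CellTiter-Glo luminescence; IC50 from 4-parameter logistic fit of RLU vs concentration.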

HEK-293 cells = test: HEK-293 growth inhibition assay; conditions: 3 days, CTG
Summary of the method: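 HEK-293 cells plated 24 hours before compound treatment, then exposed for 3 days at 37°C/5% CO2. Viability by CellTiter-Glo luminescence after 20 minutes at room temperature. IC50 from RLU versus concentration via 4-parameter logistic nonlinear regression.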

AR / CBP ternary complex = test: Ternary complex formation assay (sandwich ELISA, AR capture / CBP detection) in VCaP cell lysates; conditions: 1.5 hours treatment, sandwich ELISA (AR capture, CBP or p300 detection)
Summary of the method: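 VCaP cells (50K/well, 5% charcoal-stripped FBS, ≥3 days) treated with bifunctional compound for 1.5 h, then lysed 30 min at 4 °C. AR captured on anti-AR (AR 441) plates; bound CBP or p300 detected by rabbit mAb plus HRP secondary. QuantaRed chemifluorescence read at ex 570/em 585, immediately and at 5 and 15 min.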

Sequence of Histone H3.3/CBP-BD Interaction (Q92793 1085-1192 limits assumed): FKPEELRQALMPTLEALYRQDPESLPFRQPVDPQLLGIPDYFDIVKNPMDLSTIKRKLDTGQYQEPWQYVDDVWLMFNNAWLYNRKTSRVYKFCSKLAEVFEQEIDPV

`CNC(=O)N1CCc2c(c(N3CCCc4cc(-c5cnn(C)c5)c(C(F)F)cc43)nn2C2CCN(C(=O)CN3CCN(c4ncc(C(=O)NC5C(C)(C)C(Oc6ccc(C#N)c(Cl)c6)C5(C)C)cn4)CC3)CC2)C1` (centres unmarked) [Compound 109, 1-[1-[2-[4-[5-[[3-(3-chloro-4-cyano-phenoxy)-2,2,4,4-tetramethyl-cyclobutyl]carbamoyl]pyrimidin-2-yl]piperazin-1-yl]acetyl]-4-piperidyl]-3-[7-(difluoromethyl)-6-(1-methylpyrazol-4-yl)-3,4-dihydro-2H-quinolin-1-yl]-N-methyl-6,7-dihydro-4H-pyrazolo[4,3-c]pyridine-5-carboxamide] was tested, and the IC50 [1] was > 1000 nM, the IC50 (VCaP cells) was ≤ 0.1 nM and the IC50 (HEK-293 cells) was > 10000 nM. For the same compound, the EC50 (AR / CBP ternary complex) was < 1 nM.

`CNC(=O)N1CCc2c(c(N3CCCc4cc(-c5cnn(C)c5)c(C(F)F)cc43)nn2C2CCOCC2)C1` [GNE-781, reference compound] showed an IC50 ([1]; HEK293 cells transfected with Histone H3.3-HaloTag and CBP-BD-NanoLuc, 22 hours treatment, test compounds starting at 1 uM, SGC-CBP-30 starting at 10 uM, 10-dose with 3-fold dilution) of 0.123 nM.

With `CNC(=O)N1CCc2c(c(N3CCCc4cc(-c5cnn(C)c5)c(C(F)F)cc43)nn2C2CCN(Cc3ncc(C(=O)NC4C(C)(C)C(Oc5ccc(C#N)c(Cl)c5)C4(C)C)cn3)CC2)C1` (centres unmarked) [Compound 91, 1-[1-[[5-[[3-(3-chloro-4-cyano-phenoxy)-2,2,4,4-tetramethyl-cyclobutyl]carbamoyl]pyrimidin-2-yl]methyl]-4-piperidyl]-3-[7-(difluoromethyl)-6-(1-methylpyrazol-4-yl)-3,4-dihydro-2H-quinolin-1-yl]-N-methyl-6,7-dihydro-4H-pyrazolo[4,3-c]pyridine-5-carboxamide] the IC50 (VCaP cells) was > 100 nM, the IC50 (HEK-293 cells) was > 10000 nM and the EC50 (AR / CBP ternary complex) was > 100 nM.

For `CNC(=O)N1CCc2c(c(N3CCCc4cc(-c5cnn(C)c5)c(C(F)F)cc43)nn2C2CCN(CCc3ncc(C(=O)NC4C(C)(C)C(Oc5ccc(C#N)c(Cl)c5)C4(C)C)cn3)CC2)C1` (centres unmarked) [Compound 90, 1-[1-[2-[5-[[3-(3-chloro-4-cyano-phenoxy)-2,2,4,4-tetramethyl-cyclobutyl]carbamoyl]pyrimidin-2-yl]ethyl]-4-piperidyl]-3-[7-(difluoromethyl)-6-(1-methylpyrazol-4-yl)-3,4-dihydro-2H-quinolin-1-yl]-N-methyl-6,7-dihydro-4H-pyrazolo[4,3-c]pyridine-5-carboxamide], the IC50 (VCaP cells) was > 100 nM, the IC50 (HEK-293 cells) was 2160 nM and the EC50 (AR / CBP ternary complex) was < 1 nM.

For `CNC(=O)N1CCc2c(c(N3CCCc4cc(-c5cnn(C)c5)c(C(F)F)cc43)nn2C2CCN(CC3CCN(c4ncc(C(=O)NC5C(C)(C)C(Oc6ccc(C#N)c(Cl)c6)C5(C)C)cn4)CC3)CC2)C1` (centres unmarked) [Compound 82, 1-[1-[[1-[5-[[3-(3-chloro-4-cyano-phenoxy)-2,2,4,4-tetramethyl-cyclobutyl]carbamoyl]pyrimidin-2-yl]-4-piperidyl]methyl]-4-piperidyl]-3-[7-(difluoromethyl)-6-(1-methylpyrazol-4-yl)-3,4-dihydro-2H-quinolin-1-yl]-N-methyl-6,7-dihydro-4H-pyrazolo[4,3-c]pyridine-5-carboxamide], the IC50 (VCaP cells) was ≤ 0.1 nM, the IC50 (HEK-293 cells) was > 10000 nM and the EC50 (AR / CBP ternary complex) was < 1 nM.

With `CC(=O)N1CCc2c(c(N3CCCc4cc(-c5cnn(C)c5)c(C(F)F)cc43)nn2C2CCN(C[C@@H]3CCN(c4ncc(C(=O)NC5C(C)(C)C(Oc6ccc(C#N)c(Cl)c6)C5(C)C)cn4)C[C@@H]3C)CC2)C1` (stereo partly drawn) [Compound 275, 2-[(3R,4R)-4-[[4-[5-acetyl-3-[7-(difluoromethyl)-6-(1-methylpyrazol-4-yl)-3,4-dihydro-2H-quinolin-1-yl]-6,7-dihydro-4H-pyrazolo[4,3-c]pyridin-1-yl]-1-piperidyl]methyl]-3-methyl-1-piperidyl]-N-[3-(3-chloro-4-cyano-phenoxy)-2,2,4,4-tetramethyl-cyclobutyl]pyrimidine-5-carboxamide] the IC50 (VCaP cells) was ≤ 0.1 nM, the IC50 (HEK-293 cells) was > 1000 nM and the EC50 (AR / CBP ternary complex) was < 1 nM.

In the case of `COc1cc(OC2C(C)(C)C(NC(=O)c3ccc(N4CC5(CCC(N6CCC(n7nc(N8CCCc9cc(-c%10cnn(C)c%10)c(C(F)F)cc98)c8c7CCN(C(C)=O)C8)CC6)CC5)C4)cc3)C2(C)C)ccc1C#N` (centres unmarked) [Compound 273, 4-[7-[4-[5-acetyl-3-[7-(difluoromethyl)-6-(1-methylpyrazol-4-yl)-3,4-dihydro-2H-quinolin-1-yl]-6,7-dihydro-4H-pyrazolo[4,3-c]pyridin-1-yl]-1-piperidyl]-2-azaspiro[3.5]nonan-2-yl]-N-[3-(4-cyano-3-methoxy-phenoxy)-2,2,4,4-tetramethyl-cyclobutyl]benzamide], the IC50 (VCaP cells) is reported as ≤ 0.1 nM, the IC50 (HEK-293 cells) is reported as > 1000 nM and the EC50 (AR / CBP ternary complex) is reported as < 1 nM.

`CC(=O)N1CCc2c(c(N3CCCc4cc(-c5cnn(C)c5)c(C(F)F)cc43)nn2C2CCN(C(=O)CN3CCN(c4ncc(C(=O)NC5C(C)(C)C(Oc6ccc(C#N)c(Cl)c6)C5(C)C)cn4)CC3)CC2)C1` (centres unmarked) [Compound 96, 2-[4-[2-[4-[5-acetyl-3-[7-(difluoromethyl)-6-(1-methylpyrazol-4-yl)-3,4-dihydro-2H-quinolin-1-yl]-6,7-dihydro-4H-pyrazolo[4,3-c]pyridin-1-yl]-1-piperidyl]-2-oxo-ethyl]piperazin-1-yl]-N-[3-(3-chloro-4-cyano-phenoxy)-2,2,4,4-tetramethyl-cyclobutyl]pyrimidine-5-carboxamide] was tested, and the IC50 (VCaP cells) was ≤ 0.1 nM, the IC50 (HEK-293 cells) was > 10000 nM and the EC50 (AR / CBP ternary complex) was < 1 nM.

In the case of `CC(=O)N1CCc2c(c(N3CCCc4cc(-c5cnn(C)c5)c(C(F)F)cc43)nn2C2CCN(CC3CN(c4ncc(C(=O)NC5C(C)(C)C(Oc6ccc(C#N)c(Cl)c6)C5(C)C)cn4)C3)CC2)C1` (centres unmarked) [Compound 20, 2-[3-[[4-[5-acetyl-3-[7-(difluoromethyl)-6-(1-methylpyrazol-4-yl)-3,4-dihydro-2H-quinolin-1-yl]-6,7-dihydro-4H-pyrazolo[4,3-c]pyridin-1-yl]-1-piperidyl]methyl]azetidin-1-yl]-N-[3-(3-chloro-4-cyano-phenoxy)-2,2,4,4-tetramethyl-cyclobutyl]pyrimidine-5-carboxamide], the IC50 (VCaP cells) is reported as ≤ 0.1 nM, the IC50 (HEK-293 cells) is reported as > 10000 nM and the EC50 (AR / CBP ternary complex) is reported as < 1 nM.

For `CC(=O)N1CCc2c(c(N3CCCc4cc(-c5cnn(C)c5)c(C(F)F)cc43)nn2C2CCN(C3CCN(c4ncc(C(=O)NC5C(C)(C)C(Oc6ccc(C#N)c(Cl)c6)C5(C)C)cn4)CC3)CC2)C1` (centres unmarked) [Compound 85, 2-[4-[4-[5-acetyl-3-[7-(difluoromethyl)-6-(1-methylpyrazol-4-yl)-3,4-dihydro-2H-quinolin-1-yl]-6,7-dihydro-4H-pyrazolo[4,3-c]pyridin-1-yl]-1-piperidyl]-1-piperidyl]-N-[3-(3-chloro-4-cyano-phenoxy)-2,2,4,4-tetramethyl-cyclobutyl]pyrimidine-5-carboxamide], the IC50 (VCaP cells) was 0.1 to 1 nM, the IC50 (HEK-293 cells) was > 10000 nM and the EC50 (AR / CBP ternary complex) was < 1 nM.

For `CNC(=O)N1CCc2c(c(N3CCCc4cc(-c5cnn(C)c5)c(C(F)F)cc43)nn2C2CCN(C(=O)COCCCOCC3CCN(c4ncc(C(=O)NC5C(C)(C)C(Oc6ccc(C#N)c(Cl)c6)C5(C)C)cn4)CC3)CC2)C1` (centres unmarked) [Compound 97, 1-[1-[2-[3-[[1-[5-[[3-(3-chloro-4-cyano-phenoxy)-2,2,4,4-tetramethyl-cyclobutyl]carbamoyl]pyrimidin-2-yl]-4-piperidyl]methoxy]propoxy]acetyl]-4-piperidyl]-3-[7-(difluoromethyl)-6-(1-methylpyrazol-4-yl)-3,4-dihydro-2H-quinolin-1-yl]-N-methyl-6,7-dihydro-4H-pyrazolo[4,3-c]pyridine-5-carboxamide], the IC50 (VCaP cells) was ≤ 0.1 nM, the IC50 (HEK-293 cells) was > 10000 nM and the EC50 (AR / CBP ternary complex) was < 1 nM.
